Several values for one entry are separate records, joined by “and”; a condition that tells them apart may be missing. Identical values can stand only once. Entries after “also recorded” stand apart in the source; their conditions may differ.
Experiments:
[1] = tested on: intracellular amastigote form of L. donovani parasite in differentiated THP1 cells; experiment: Parasite rescue and transformation assay (macrophage internalized amastigotes); format: cell-based, Leishmania donovani; settings: for selectivity index (SI): IC50 of cytotoxicity divided by IC50 in parasite rescue and transformation assay; for IC50: Leishmania donovani, THP-1, parasite rescue and transformation assay, read-out: IC50 anti-leishmanial activity, intracellular amastigote
Protocol: This assay is based on the previously published protocol by Jain et al. (35). A 3-day old culture of THP1 cells in the exponential phase was diluted with RPMI medium to 2.5×10^5 cells/ml. PMA was added to final a concentration of 25 ng/ml. PMA treated culture was dispensed in clear flat bottom culture plates and incubated overnight at 37° C. in a 5% CO2 incubator. The plates with differentiated THP1 Cells were washed with serum-free medium with the help of Molecular device AquaMax 4000. A 5-6-day old L. donovani promastigote culture diluted to 5×10^6 cells/ml was added over differentiated THP1 cells. The Macrophage cells to parasite ratio for infection was 1:10. The plates were incubated for 24 hrs. After 24 hrs., the plates were again washed with the help of AquaMax 4000 and the serum-free medium was replaced by a medium with diluted test samples. The plates were placed again in a CO2 incubator at […] for 48 hrs. After 48 hrs., the macrophage amastigote plates were washed and treated with 0.05% SDS for 30 secs., and diluted SDS medium was immediately replaced with complete RPMI medium. Plates were incubated for amastigote to promastigote transformation, and promastigote growth at […] for 48 hrs. After 48 hrs., 5 μl of alamar blue was added to each well of macrophage amastigote assay plates, and the plates were incubated further for 24 hrs. Standard fluorescence was measured on a Fluostar Galaxy fluorometer (BMG LabTechnologies) at 544 nm ex, 590 nm em. Xlfit 5.3.1 software has generated all dose response curves.

[2] = tested on: L. donovani promastigotes; experiment: Annexin V binding apoptosis assay (Annexin V/Propidium Iodide flow cytometry); format: cell-based, Leishmania donovani; settings: for apoptotic effect on promastigotes: dimers 14 μM, artemisinin 35 μM, 24 to 72 hrs
From the text: Apoptosis, also known as programmed cell death, is a physiological process of removal of unwanted cells (37). In one of the earlier events, the process of apoptosis includes translocation of membrane phosphatidylserine from the inner side of the cell membrane to the surface (38). Annexin V is a Ca^++ dependent phospholipid-binding protein which has a high affinity for phosphatidylserine (39). So FITC-labeled Annexin V can be used for the analysis of exposed PS using a flow cytometer (40). Apoptosis analysis was done by flow cytometry using Annexin V/Propidium Iodide staining method. […] 1×10^7 promastigote cells/ml were treated with artemisinin (35 μM), dimer Morpholine (14 μM) and dimer GABA (14 μM). Aliquots were withdrawn at different time intervals and stained with FITC-Annexin V and Propidium Iodide. The cell was analyzed by flow-cytometry. […] 50,000 in a gated event were run in a FL2 (Propidium Iodide)/FL1 (Annexin FITC) and analyzed by quadrangle plot.

[3] = tested on: promastigote form of L. donovani parasite; experiment: Leishmania donovani promastigote assay (alamar blue); format: cell-based; settings: read-out: IC50 anti-leishmanial activity, promastigote
Protocol: THP-1 cells (human monocytic leukemia cells) were made available by the American Type Culture Collection (ATCC) and were maintained in RPMI 1640 media (Life-Technologies) supplemented with Sodium Pyruvate, Glutamine, HEPES (Life-81 Technologies) and 10% heat-inactivated FBS (Sigma). The culture was maintained at 37° C. in 5% CO2 incubator. THP1 cells Subculture was done every 3-4 days. Promastigote forms of Leishmania donovani (S1 strain) was grown in RPMI 1640 medium at pH 7.4 supplemented with 10% fetal bovine serum. The culture was maintained at 26° C. by incubator. Subculture was done every 3-4 days. The promastigote assay was based on alamar blue base growth analysis (33). A 3-4 day old promastigote culture in the exponential phase was diluted with RPMI 1640 medium, to 1×10^6 cells/ml. Artemisinin dimer samples were diluted to stock concentration of 2 mg/ml. Artemisinin dimer samples were dispensed in culture plates and diluted with a promastigote culture so the final highest concentration of samples was 10 μg/ml, and highest concentration of parent artemisinin was 40 μg/ml. The culture with the highest concentration of each artemisinin dimer was serially diluted in 1:5 ratio to 6 different concentrations. All artemisinin dimers were tested in triplicate. […] Standard fluorescence was measured on a Fluostar Galaxy fluorometer (BMG LabTechnologies) at 544 nm ex, 590 nm em. […]

[4] = THP1 cytotoxicity assay (alamar blue); format: cell-based; settings: human, PMA-differentiated THP1 cells, 48 hrs + 24 hrs alamar blue
Protocol: THP-1 cells (human monocytic leukemia cells) were made available by the American Type Culture Collection (ATCC) and were maintained in RPMI 1640 media (Life-Technologies) supplemented with Sodium Pyruvate, Glutamine, HEPES (Life-81 Technologies) and 10% heat-inactivated FBS (Sigma). The culture was maintained at 37° C. in 5% CO2 incubator. THP1 cells Subculture was done every 3-4 days. Promastigote forms of Leishmania donovani (S1 strain) was grown in RPMI 1640 medium at pH 7.4 supplemented with 10% fetal bovine serum. The culture was maintained at 26° C. by incubator. Subculture was done every 3-4 days.
A 3-day old culture of THP1 cells in the exponential phase was diluted with RPMI medium to 2.5×10^5 cells/ml. PMA was added to final a concentration of 25 ng/ml. PMA treated culture was dispensed in clear flat bottom culture plates and incubated overnight at 37° C. in a 5% CO2 incubator. The plates with differentiated THP1 cells were washed with serum-free medium with the help of Molecular device AquaMax 4000 and the serum-free medium was replaced by a medium with diluted test samples. The plates were placed again in a CO2 incubator at […] for 48 hrs. […] Standard fluorescence was measured on a Fluostar Galaxy fluorometer (BMG LabTechnologies) at 544 nm ex, 590 nm em. […]

Compound | IC50 [1] [µM] | selectivity index (SI) [1] | apoptotic effect on promastigotes [2] | IC50 at 48 h [4] [µM] | other results
C[C@H]1[C@@H](OC/C(CO[C@H]2O[C@@H]3O[C@]4(C)CC[C@H]5[C@H](C)CC[C@@H]([C@H]2C)[C@@]35OO4)=N\O)O[C@@H]2OC3(C)CC[C@H]4[C@H](C)CC[C@@H]1[C@@]24OO3 [dimer oxime] |  |  |  | 11.4 | 
C[C@H]1[C@@H](OCC(CO[C@H]2O[C@@H]3O[C@@]4(C)CC[C@H]5[C@H](C)CC[C@@H]([C@H]2C)[C@@]35OO4)NCCc2c[nH]c3ccccc23)OC2O[C@@]3(C)CC[C@H]4[C@H](C)CC[C@@H]1[C@@]24OO3 (stereo partly drawn) [dimer tryptamine] |  |  |  | 7.39 | 
N=C(N)c1ccc(OCCCCCOc2ccc(C(=N)N)cc2)cc1 [pentamidine] | 0.545 | 63 |  |  | 

Further lines, with some results ahead:

IC50 [1] [µM] | Compound | selectivity index (SI) [1] | apoptotic effect on promastigotes [2] | IC50 at 48 h [4] [µM] | other results
0.007 | C[C@H]1[C@@H](OCC(CO[C@H]2O[C@@H]3O[C@@]4(C)CC[C@H]5[C@H](C)CC[C@@H]([C@H]2C)[C@@]35OO4)N2CCOCC2)OC2O[C@@]3(C)CC[C@H]4[C@H](C)CC[C@@H]1[C@@]24OO3 (stereo partly drawn) [Dimer Morpholine] | > 2056 and > 2052 | time-dependent apoptotic effect |  | population in UR area of FL2/FL1 dot plot, 48 hrs compared to 24 hrs ([2]; 14 μM): significantly (P<0.0001) higher population; population in UR area of FL2/FL1 dot plot, 72 hrs compared to 24 hrs ([2]; 14 μM): significantly (P<0.0001) higher population; population in Upper Right (UR, late apoptosis) area of FL2 (PI)/FL1 (Annexin FITC) dot plot compared to control group ([2]; 14 μM, 24 hrs): significantly (P<0.0001) higher population; population in UR area of FL2/FL1 dot plot compared to control group ([2]; 14 μM, 48 hrs): significantly (P<0.0001) higher population; population in UR area of FL2/FL1 dot plot compared to control group ([2]; 14 μM, 72 hrs): significantly (P<0.0001) higher population
0.062 | C[C@@H]1[C@H](O)[C@@H](C)/C=C/C=C/C=C/C=C/C=C/C=C/C=C/[C@H](O[C@@H]2O[C@H](C)[C@@H](O)[C@H](N)[C@@H]2O)C[C@@H]2O[C@](O)(C[C@@H](O)C[C@@H](O)[C@H](O)CC[C@@H](O)C[C@@H](O)CC(=O)O[C@H]1C)C[C@H](O)[C@H]2C(=O)O [amphotericin, amphotericin B] | 201 |  |  | 
> 35.4 | C[C@@H]1CC[C@H]2[C@@H](C)C(=O)O[C@@H]3O[C@@]4(C)CC[C@@H]1[C@]32OO4 [artemisinin] |  | does not have; also recorded: does not have leishmanicidal or apoptotic effect |  | IC50 [3]: 99.2 µM; anti-leishmanial (leishmanicidal) effect ([2]; artemisinin at 35 μM): does not have an anti-leishmanial effect; also recorded: does not have leishmanicidal or apoptotic effect

Source: patent publication US12156915B2, “Selected artemisinin dimers for the treatment of lashmaniasis” (priority 2020, dated 2024)
